pIC50: −log10 of the molar value. Values after ≈ are worked out from the molar mass of the structure shown.

This note sets out measurements from ChEMBL document CHEMBL1127397, “The synthesis of nucleoside 5'-O-(1,1-dithiotriphosphates)” (J Med Chem, 1994).

Test [1] deals with Human immunodeficiency virus type 1 reverse transcriptase (Human immunodeficiency virus 1, UniProt Q72547). Put plainly: Tested against HIV-1 reverse transcriptase (HIV-1 RT) with poly(rA)/(dT)12-18 as template and [methyl-3H]-dTTP as competing substrate. The class given is functional.
For test [2], the system named is CCRF-CEM. Put plainly: Tested for the ability to inhibit HIV-1 (IIIB) replication in CEM cells. Format: functional, cell-based. Conditions: Homo sapiens.
For test [3], the system named is CCRF-CEM. Put plainly: Tested for the ability to inhibit HIV-2 (ROD) replication in CEM cells. Format: functional, cell-based. Conditions: Homo sapiens.

With `Cc1cn([C@H]2CC(N=[N+]=[N-])C(COP(=S)(S)OP(=O)(O)OP(=O)(O)O)O2)c(=O)[nH]c1=O` (stereo not given in full), in test [1], the pIC50 – broadly, the negative decadic logarithm of the IC50, by convention in mol/L – is 6.03. Further, a half-maximal response in test [2] (EC50) required 0.5 µg/mL (≈ 0.927 µM).
Molecule `Cc1cn([C@H]2C[C@H](N=[N+]=[N-])[C@@H](CO[P@](=O)(O)O[P@](=O)(O)OP(=O)(O)O)O2)c(=O)[nH]c1=O` [ZIDOVUDINE TRIPHOSPHATE] showed a pIC50 in test [1] of 8.52.
Turning to `Nc1nc(O)c2ncn(C3O[C@H](COP(=S)(S)OP(=O)(O)OP(=O)(O)O)[C@@H](O)[C@H]3O)c2n1` (stereo not given in full), the EC50 in test [2] and in test [3] was more than 50 µg/mL in each case.
As for `Cc1cn([C@H]2CC(O)C(COP(=S)(S)OP(=O)(O)OP(=O)(O)O)O2)c(=O)[nH]c1=O` (stereo not given in full), the EC50 in test [2] and in test [3] was more than 50 µg/mL in each case.
As to `Nc1ncnc2c1ncn2[C@H]1CC(O)C(COP(=S)(S)OP(=O)(O)OP(=O)(O)O)O1` (stereo not given in full), the EC50 – broadly, the concentration giving half of the maximal effect – in test [2] came to 43 µg/mL (≈ 82.2 µM); in test [3], 50 µg/mL (≈ 95.5 µM).
As for `Nc1ccn([C@H]2CC(O)C(COP(=S)(S)OP(=O)(O)OP(=O)(O)O)O2)c(=O)n1` (stereo not given in full), the results for the EC50 in test [2] and in test [3] were 97 µg/mL (≈ 194 µM) and 123 µg/mL (≈ 246 µM), respectively.
Consider `Nc1nc(O)c2ncn([C@H]3CC(O)C(COP(=S)(S)OP(=O)(O)OP(=O)(O)O)O3)c2n1` (stereo not given in full), for which the EC50 in test [2] and in test [3] was more than 50 µg/mL each time.
As for `Nc1ncnc2c1ncn2C1O[C@H](COP(=S)(S)OP(=O)(O)OP(=O)(O)O)[C@@H](O)[C@H]1O` (stereo not given in full), the EC50 amounted to 42 µg/mL (≈ 77.9 µM) in test [2] and 116 µg/mL (≈ 215 µM) in test [3].
